Experimental findings from patent US12415794B2 (Edgewise Therapeutics, Inc., priority 2018, dated 2025) are described below.

In assay [1] the target is T1, cardiac myofibrils (myosin ATPase).
T1 construct: frozen myofibril pellets obtained from cardiac tissue; from tissue
Nature of the assay: Cardiac Myofibril ATPase Assay (counter screen). The format is biochemical. The following applies: myofibrils 1.0 mg/mL, KCl omitted. The method, boiled down: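 Frozen cardiac myofibrils at 1.0 mg/mL final, KCl omitted, in a PK-LDH coupled ATPase assay; ADP production tracked as NADH loss by absorbance at 340 nm. Inhibition taken as reduced rate relative to vehicle controls, with IC50 derived.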
For orientation: A counterscreen serves to expose hits that act by an unwanted route or on another target.

In assay [2] the target is skeletal myofibrils (myosin ATPase). In words: Skeletal Myofibril ATPase Assay. The assay is classed as biochemical. In outline:
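Skeletal myofibril ATPase measured by PK-LDH coupled NADH depletion, absorbance 340 nm read every 1.5-2 min over 45 min. Max−min rate normalized to 1% DMSO vehicle as 100%; IC50 from four-parameter logistic fit with bottom ≥0. Cardiac myofibrils used as counter-screen.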

Structures are written as SMILES. Some results are limits rather than exact numbers.

T1 sequence (P12883 whole entry): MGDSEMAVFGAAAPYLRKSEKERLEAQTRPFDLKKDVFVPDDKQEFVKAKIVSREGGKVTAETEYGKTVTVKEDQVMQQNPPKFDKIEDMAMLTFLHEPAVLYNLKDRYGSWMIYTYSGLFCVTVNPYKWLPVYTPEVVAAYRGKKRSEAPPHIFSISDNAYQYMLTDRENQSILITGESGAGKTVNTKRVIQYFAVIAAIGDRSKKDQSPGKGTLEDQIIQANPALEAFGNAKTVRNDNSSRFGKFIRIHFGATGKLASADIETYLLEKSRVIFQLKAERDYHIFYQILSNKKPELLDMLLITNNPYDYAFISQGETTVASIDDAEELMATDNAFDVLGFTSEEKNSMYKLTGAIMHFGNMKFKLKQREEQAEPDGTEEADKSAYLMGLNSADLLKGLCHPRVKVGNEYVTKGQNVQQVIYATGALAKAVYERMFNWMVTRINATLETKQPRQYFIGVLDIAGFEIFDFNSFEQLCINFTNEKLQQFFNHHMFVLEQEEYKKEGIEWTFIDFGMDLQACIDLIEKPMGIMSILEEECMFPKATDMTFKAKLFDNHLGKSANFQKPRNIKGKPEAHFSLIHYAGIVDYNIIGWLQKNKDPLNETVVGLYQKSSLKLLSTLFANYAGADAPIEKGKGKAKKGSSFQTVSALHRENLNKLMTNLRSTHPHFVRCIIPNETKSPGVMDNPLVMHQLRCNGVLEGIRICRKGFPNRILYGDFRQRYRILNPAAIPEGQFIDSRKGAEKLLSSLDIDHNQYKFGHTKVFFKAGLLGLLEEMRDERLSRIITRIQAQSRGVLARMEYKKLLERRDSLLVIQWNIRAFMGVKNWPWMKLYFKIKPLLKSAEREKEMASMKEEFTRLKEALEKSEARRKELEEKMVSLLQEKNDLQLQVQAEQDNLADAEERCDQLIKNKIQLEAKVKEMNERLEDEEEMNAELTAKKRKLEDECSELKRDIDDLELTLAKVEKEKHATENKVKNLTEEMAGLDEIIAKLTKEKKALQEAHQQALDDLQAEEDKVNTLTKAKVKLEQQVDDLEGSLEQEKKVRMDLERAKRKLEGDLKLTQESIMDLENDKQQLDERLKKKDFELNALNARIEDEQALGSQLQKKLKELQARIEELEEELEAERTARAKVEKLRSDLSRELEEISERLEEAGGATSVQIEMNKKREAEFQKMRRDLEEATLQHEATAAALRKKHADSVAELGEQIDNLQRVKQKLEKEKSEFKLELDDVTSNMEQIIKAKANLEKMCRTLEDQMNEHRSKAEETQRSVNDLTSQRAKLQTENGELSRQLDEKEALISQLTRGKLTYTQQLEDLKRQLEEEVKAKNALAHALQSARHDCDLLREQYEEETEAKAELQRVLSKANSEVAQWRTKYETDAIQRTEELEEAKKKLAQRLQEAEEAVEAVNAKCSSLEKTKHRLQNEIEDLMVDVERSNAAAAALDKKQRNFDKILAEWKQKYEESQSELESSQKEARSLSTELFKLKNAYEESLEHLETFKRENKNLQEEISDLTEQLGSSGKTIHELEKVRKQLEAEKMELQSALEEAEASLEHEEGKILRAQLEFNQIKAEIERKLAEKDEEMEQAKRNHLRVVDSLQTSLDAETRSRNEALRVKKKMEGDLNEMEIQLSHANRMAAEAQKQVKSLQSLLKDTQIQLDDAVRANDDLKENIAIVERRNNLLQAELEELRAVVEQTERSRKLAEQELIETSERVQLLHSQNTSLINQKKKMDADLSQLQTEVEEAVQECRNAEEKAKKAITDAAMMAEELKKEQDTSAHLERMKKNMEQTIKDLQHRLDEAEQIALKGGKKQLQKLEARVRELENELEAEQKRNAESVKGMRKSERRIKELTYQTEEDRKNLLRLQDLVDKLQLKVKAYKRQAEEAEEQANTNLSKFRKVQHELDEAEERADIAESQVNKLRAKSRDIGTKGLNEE
T1 sequence (P08590 whole entry partner): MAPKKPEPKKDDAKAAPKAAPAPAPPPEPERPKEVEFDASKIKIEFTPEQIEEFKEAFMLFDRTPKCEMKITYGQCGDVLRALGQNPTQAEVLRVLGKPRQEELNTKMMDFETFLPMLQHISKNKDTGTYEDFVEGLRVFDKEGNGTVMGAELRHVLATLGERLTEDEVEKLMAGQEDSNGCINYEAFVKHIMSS
T1 sequence (P10916 whole entry partner): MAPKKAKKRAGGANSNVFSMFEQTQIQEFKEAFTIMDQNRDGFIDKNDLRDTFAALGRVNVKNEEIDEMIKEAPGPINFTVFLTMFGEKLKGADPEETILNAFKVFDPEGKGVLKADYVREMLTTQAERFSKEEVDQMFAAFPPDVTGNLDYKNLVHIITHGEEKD

Turning to `COc1ccc(-c2ccc(=O)n(CC(=O)Nc3ccc4c(c3)OCCO4)n2)c(F)c1` [IIIb-15, N-(2,3-dihydrobenzo[b][1,4]dioxin-6-yl)-2-(3-(2-fluoro-4-methoxyphenyl)-6-oxopyridazin-1(6H)-yl)acetamide], the figures for the IC50 in assay [1] (Table 5C) and in assay [2] (Table 4C) were > 100 µM and < 10 µM, respectively.
In the case of `COc1ccc(-c2ccc(=O)n(CC(=O)Nc3cccc(Cl)c3)n2)cc1` [IIIb-52, N-(3-chlorophenyl)-2-(3-(4-methoxyphenyl)-6-oxopyridazin-1(6H)-yl)acetamide], the 50% inhibitory concentration (IC50) in assay [1] (Table 5C) and in assay [2] (Table 4C) was > 100 µM throughout.
Consider `COc1ccc(-c2ccc(=O)n(CC(=O)NC(C)CCc3ccccc3)n2)c(F)c1` (stereo not drawn) [IIIb-36, 2-(3-(2-fluoro-4-methoxyphenyl)-6-oxopyridazin-1(6H)-yl)-N-(4-phenylbutan-2-yl)acetamide], for which the results for the IC50 in assay [1] (Table 5C) and in assay [2] (Table 4C) were > 100 µM and 10 to 100 µM, respectively.
Consider `COc1ccc(-c2ccc(=O)n(CC(=O)NCc3cccc(F)c3)n2)c(F)c1` [IIIb-55, 2-(3-(2-fluoro-4-methoxyphenyl)-6-oxopyridazin-1(6H)-yl)-N-(3-fluorobenzyl)acetamide], for which the half-maximal inhibitory concentration (IC50) in assay [1] (Table 5C) and in assay [2] (Table 4C) was > 100 µM each time.
As for `COc1ccc(CNC(=O)Cn2nc(-c3ccc(OC)cc3)ccc2=O)cc1` [IIIb-34, N-(4-methoxybenzyl)-2-(3-(4-methoxyphenyl)-6-oxopyridazin-1(6H)-yl)acetamide], the concentration for half-maximal inhibition (IC50) (usually the midpoint of a concentration-inhibition curve) in assay [1] (Table 5C) is > 100 µM; in assay [2] (Table 4C), 10 to 100 µM.
On to `CCCNC(=O)Cn1nc(-c2ccc(OC(F)F)cc2)ccc1=O` [II-12, 2-(3-(4-(difluoromethoxy)phenyl)-6-oxopyridazin-1(6H)-yl)-N-propylacetamide], for which the concentration for half-maximal inhibition (IC50) in assay [1] (Table 5B) is > 100 µM; in assay [2] (Table 4B) it was 10 to 100 µM.
`COc1ccc(-c2ccc(=O)n(CC(=O)NCCC(C)C)n2)c(F)c1` [IIIb-57, 2-(3-(2-fluoro-4-methoxyphenyl)-6-oxopyridazin-1(6H)-yl)-N-isopentylacetamide]: the IC50 in assay [1] (Table 5C) and in assay [2] (Table 4C) was > 100 µM in each case.
`COc1ccc(-c2ccc(=O)n(CC(=O)NCc3nccn3C)n2)cc1` [IIIa-33, 2-(3-(4-methoxyphenyl)-6-oxopyridazin-1(6H)-yl)-N-((1-methyl-1H-imidazol-2-yl)methyl) acetamide]: the IC50 in assay [1] (Table 5C) and in assay [2] (Table 4C) was > 100 µM each time.
For `COc1ccc(-c2ccc(=O)n(CC(=O)NCc3ccccc3OC)n2)cc1` [IIIb-21, N-(2-methoxybenzyl)-2-(3-(4-methoxyphenyl)-6-oxopyridazin-1(6H)-yl)acetamide], the results for the IC50 in assay [1] (Table 5C) and in assay [2] (Table 4C) were > 100 µM and 10 to 100 µM, respectively.
For `COc1ccc(-c2ccc(=O)n(CC(=O)NCc3cccc(F)c3)n2)cc1` [IIIb-32, N-(3-fluorobenzyl)-2-(3-(4-methoxyphenyl)-6-oxopyridazin-1(6H)-yl)acetamide], the IC50 was > 100 µM in assay [1] (Table 5C) and 10 to 100 µM in assay [2] (Table 4C).
As for `COc1ccc(-c2ccc(=O)n(CC(=O)NCC3CCCCC3)n2)cc1` [IIIa-4], the IC50 was > 100 µM in assay [1] (Table 5C) and < 10 µM in assay [2] (Table 4C).
As to `CCNC(=O)Cn1nc(-c2ccc(OC(F)F)cc2)cc(C)c1=O` [II-21, 2-(3-(4-(difluoromethoxy)phenyl)-5-methyl-6-oxopyridazin-1(6H)-yl)-N-ethylacetamide], the IC50 in assay [1] (Table 5B) and in assay [2] (Table 4B) was > 100 µM throughout.
`CCNC(=O)Cn1nc(-c2ccc(N3CC(F)(F)C3)nc2)ccc1=O` [Compound I-6, 2-(3-(6-(3,3-difluoroazetidin-1-yl)pyridin-3-yl)-6-oxopyridazin-1(6H)-yl)-N-ethylacetamide]: the IC50 in assay [1] (Table 5A) is > 100 µM; in assay [2] (Table 4A), 10 to 100 µM.
For `O=C(Cn1nc(-c2ccc3c(c2)OCCO3)ccc1=O)Nc1ccccc1F` [IIIb-6, 2-(3-(2,3-dihydrobenzo[b][1,4]dioxin-6-yl)-6-oxopyridazin-1(6H)-yl)-N-(2-fluorophenyl)acetamide], the half-inhibitory concentration (IC50) in assay [1] (Table 5C) is 10 to 100 µM; in assay [2] (Table 4C), < 10 µM.
Consider `CNC(=O)Cn1nc(-c2ccc(OC)cc2)ccc1=O` [IIIa-21, 2-(3-(4-methoxyphenyl)-6-oxopyridazin-1(6H)-yl)-N-methylacetamide], for which the 50% inhibitory concentration (IC50) in assay [1] (Table 5C) is > 100 µM; in assay [2] (Table 4C), 10 to 100 µM.
As to `CCc1ccc(-c2ccc(=O)n(CC(=O)NCc3ccccc3Cl)n2)cc1` [IIIa-18, N-(2-chlorobenzyl)-2-(3-(4-ethylphenyl)-6-oxopyridazin-1(6H)-yl)acetamide], the half-inhibitory concentration (IC50) in assay [1] (Table 5C) was > 100 µM; in assay [2] (Table 4C), < 10 µM.
`O=C(Cn1nc(-c2ccccc2)ccc1=O)Nc1ccccc1Cl` [IIIc-56, N-(2-chlorophenyl)-2-(6-oxo-3-phenylpyridazin-1(6H)-yl)acetamide]: the IC50 in assay [1] (Table 5C) is > 100 µM; in assay [2] (Table 4C), 10 to 100 µM.
Regarding `O=C(Cn1nc(-c2ccc(OC(F)F)nc2)ccc1=O)NCc1ccccc1Cl` [Compound I-69, N-(2-chlorobenzyl)-2-(3-(6-(difluoromethoxy)pyridin-3-yl)-6-oxopyridazin-1(6H)-yl)acetamide], the half-inhibitory concentration (IC50) is > 100 µM in assay [1] (Table 5A) and < 10 µM in assay [2] (Table 4A).
Consider `COc1ccc(-c2ccc(=O)n(CC(=O)NCc3ccccn3)n2)cc1` [IIIa-30, 2-(3-(4-methoxyphenyl)-6-oxopyridazin-1(6H)-yl)-N-(pyridin-2-ylmethyl) acetamide], for which the half-maximal inhibitory concentration (IC50) in assay [1] (Table 5C) and in assay [2] (Table 4C) was > 100 µM each time.
With `CC[C@H](C)NC(=O)Cn1nc(-c2ccc(Cl)cc2)ccc1=O` [IIIc-30, (S)-N-(sec-butyl)-2-(3-(4-chlorophenyl)-6-oxopyridazin-1(6H)-yl)acetamide], the concentration for half-maximal inhibition (IC50) in assay [1] (Table 5C) was > 100 µM; in assay [2] (Table 4C) it was 10 to 100 µM.
Take `COc1ccc(-c2ccc(=O)n(CC(=O)NC(C)C)n2)cc1` [IIIb-18, N-isopropyl-2-(3-(4-methoxyphenyl)-6-oxopyridazin-1(6H)-yl)acetamide]: the values for the IC50 in assay [1] (Table 5C) and in assay [2] (Table 4C) were > 100 µM and 10 to 100 µM, respectively.
As for `O=C(Cn1nc(-c2ccc(OC(F)F)cc2)ccc1=O)NC1CCC1` [II-9, N-cyclobutyl-2-(3-(4-(difluoromethoxy)phenyl)-6-oxopyridazin-1(6H)-yl)acetamide], the half-maximal inhibitory concentration (IC50) in assay [1] (Table 5B) is > 100 µM; in assay [2] (Table 4B) it was < 10 µM.
Regarding `COCCNC(=O)Cn1nc(-c2ccc(OC)cc2)ccc1=O` [IIIb-47, N-(2-methoxyethyl)-2-(3-(4-methoxyphenyl)-6-oxopyridazin-1(6H)-yl)acetamide], the half-inhibitory concentration (IC50) in assay [1] (Table 5C) and in assay [2] (Table 4C) was > 100 µM throughout.
As for `O=C(Cn1nc(-c2ccccc2)ccc1=O)Nc1ccc2[nH]ccc2c1` [IIIc-49, N-(1H-indol-5-yl)-2-(6-oxo-3-phenylpyridazin-1(6H)-yl)acetamide], the IC50 is > 100 µM in assay [1] (Table 5C) and < 10 µM in assay [2] (Table 4C).
For the compound `CCc1cccc(NC(=O)Cn2nc(-c3ccc(C)cc3)ccc2=O)c1` [IIIc-1, N-(3-ethylphenyl)-2-(6-oxo-3-(p-tolyl)pyridazin-1(6H)-yl)acetamide], the figures for the IC50 in assay [1] (Table 5C) and in assay [2] (Table 4C) were > 100 µM and < 10 µM, respectively.
As to `O=C(Cn1nc(-c2ccccc2)ccc1=O)Nc1ccccc1F` [IIIc-66, N-(2-fluorophenyl)-2-(6-oxo-3-phenylpyridazin-1(6H)-yl)acetamide], the IC50 in assay [1] (Table 5C) and in assay [2] (Table 4C) was > 100 µM each time.
In the case of `COc1ccc(Cl)cc1NC(=O)Cn1nc(-c2ccccc2)ccc1=O` [IIIc-62, N-(5-chloro-2-methoxyphenyl)-2-(6-oxo-3-phenylpyridazin-1(6H)-yl)acetamide], the IC50 in assay [1] (Table 5C) and in assay [2] (Table 4C) was > 100 µM throughout.
